Test results reported in PubChem BioAssay (NCI).
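Protocol summary: plate cells (96-well), add compound at 5 concentrations, incubate 48 h, interpolate endpoints linearly. GI50 is the concentration that inhibits growth by half. TGI is the concentration that stops growth completely.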

Legend:
Test in all cases: NCI-60 cell line screen, 48 h
NCI-H226 lung = system: NCI-H226 lung
MCF7 breast = system: MCF7 breast
OVCAR-5 ovarian = system: OVCAR-5 ovarian
CCRF-CEM leukemia = system: CCRF-CEM leukemia
UACC-257 melanoma = system: UACC-257 melanoma
U251 CNS = system: U251 CNS
HT29 colon = system: HT29 colon
SK-MEL-5 melanoma = system: SK-MEL-5 melanoma
786-0 renal = system: 786-0 renal
MDA-MB-231 breast = system: MDA-MB-231 breast

SMILES	GI50 (NCI-H226 lung) [µM]	TGI (NCI-H226 lung) [µM]	GI50 (MCF7 breast) [µM]	TGI (MCF7 breast) [µM]	GI50 (OVCAR-5 ovarian) [µM]	TGI (OVCAR-5 ovarian) [µM]	GI50 (CCRF-CEM leukemia) [µM]	TGI (CCRF-CEM leukemia) [µM]	GI50 (UACC-257 melanoma) [µM]	TGI (UACC-257 melanoma) [µM]	GI50 (U251 CNS) [µM]	TGI (U251 CNS) [µM]	GI50 (HT29 colon) [µM]	TGI (HT29 colon) [µM]	GI50 (SK-MEL-5 melanoma) [µM]	TGI (SK-MEL-5 melanoma) [µM]	GI50 (786-0 renal) [µM]	TGI (786-0 renal) [µM]	GI50 (MDA-MB-231 breast) [µM]	TGI (MDA-MB-231 breast) [µM]
Oc1c(I)cc(I)cc1CN(Cc1ccccn1)Cc1ccccn1	1.16	7.48	0.548	> 39.9	2.14	53.5	0.385	30.8	2.8	14.5	0.419	11.7	3.93	18	0.542	2.59	0.952	12	1.86	> 51.3
CN1CCN(CC(=O)N2c3cccc4cccc(c34)N(C(=O)CN3CCN(C)CC3)C2c2cn(-c3ccccc3)nc2-c2cccc([N+](=O)[O-])c2)CC1	1.83	4.8	1.75	3.39	2.46	7.53	1.69	4.45	1.86	3.69	1.9	4	2.19	5.59	1.7	3.11	1.76	3.21	1.84	3.68
Cc1ccc(C2=NN(c3ccc(S(N)(=O)=O)cc3)C(c3cn(-c4ccccc4)nc3-c3ccccc3)C2)cc1 (centres undefined)	30.7	> 100	3.19	> 100	70.4	> 100	> 100	> 100	29.6	> 100	19.6	> 100	4.8	> 100	16.6	> 100	4.69	> 100	9.41	84.4
C=C(CN(C)C)C(=O)c1ccc(Oc2ccccc2)cc1	–	34.3	–	15.6	–	18.6	–	14.6	–	17.7	–	23.7	–	34.3	–	19.8	–	4.99	–	15.5
C[C@@H]1OCC2(CCN(c3cnc(Sc4ccnc(N)c4Cl)c(N)n3)CC2)[C@@H]1N	–	> 100	> 100	> 100	> 100	> 100	> 95.6	> 100	> 100	> 100	9.48	> 100	> 100	> 100	> 93.3	> 100	98.6	> 100	> 100	> 100
Nc1nc(-c2ccc(Cl)cc2)cc(-c2ccccc2)c1-c1nc2ccccc2o1	15.1	31.3	3.1	> 100	19.8	54.7	4.2	33.6	15.3	35.3	4.49	18.7	5.99	39.1	14.6	29.4	4.52	19.8	5.02	17.8
COc1cc2c3c(n(CCCN4CCCC(O)C4)c(=O)c2cc1OC)-c1cc2c(cc1C3=O)OCO2 (centres undefined)	1.42	4.31	0.0107	1.31	0.931	1.71	0.00738	0.278	7.74	15.1	0.00633	0.854	0.731	9.94	0.318	20.6	0.0277	0.115	0.791	1.62
C=CCSSc1ncnc2c1ncn2C1OC(CO)C(O)C1O (centres undefined)	4.14	> 100	0.567	11.6	4.29	> 100	0.46	4.5	6.79	> 86.1	13.5	> 100	2.7	> 93.6	3.43	> 50.7	2.35	> 86.9	3.76	> 100
Cc1cc(N(CCOS(C)(=O)=O)CCOS(C)(=O)=O)ccc1C=Nc1ccc(-c2csc(-c3ccc(Br)cc3)n2)cc1	–	62.3	–	43.8	–	54.9	–	> 100	–	56.8	–	60.5	–	44.6	–	34.1	–	20.7	–	39.2
CC(=O)[O][Bi]([c]1ccccc1)[c]1ccccc1	18.6	37.5	2.62	7.97	11.8	26.3	2.27	5	11.2	23.6	2.6	10.9	18.1	32.3	12.8	25.9	2.96	9.6	14.4	28.4
O=S(=O)(Nc1ccccn1)c1ccc(N=Nc2ccc(O)c3ncccc23)cc1	2.96	10.8	1.05	8.4	3.53	18.7	1.21	> 95.2	1.39	8.02	0.388	7.04	4.53	19.3	0.683	1.63	3.42	13.6	1.11	6.03
COc1ccc2nc(-c3cc4c([nH]c5ccccc54)c(-c4ccc(F)c(F)c4)n3)[nH]c2c1	8.91	42.5	3.23	17.1	17.8	58.6	2.36	7.8	5.68	22	2.77	10.2	3.74	13	4.91	21.9	10.2	24.9	10.4	34
Nc1c2ccccc2nc2ccccc12 (tested in a mixture with another compound)	1.17	3.03	1.59	9.72	2.96	13.4	2.72	77.3	1.87	4.48	2.68	10.9	1.08	3.48	1.6	3.01	2.45	9.4	1.5	5.84
